Measurements published in patent US11896571B2, “Methods for increasing oral osteogenesis using lipoxin A4 (LXA4) and its analogs” (Forsyth Dental Infirmary for Children, priority 2013, dated 2024).

Tests used:
[1] = tested on: periodontal disease and bone loss (intrabony defects around second and fourth premolars); assay: Minipig periodontal disease model: periodontal flap surgery with a single application, μCT and conventional radiographic imaging; assay type: in vivo, minipigs (Hanford)
Protocol: The Institutional Animal Care Committee at the Forsyth Institute and PARF, Inc reviewed and approved the animal protocol prior any study activities. Two adult (18-24 months old) female minipigs (Hanford) were purchased and acclimatized for at least 7 days before any procedures. All surgical and follow up procedures and housing throughout the study duration (about 6 months including disease induction period) were performed at an animal and surgical facility at PARF, Inc.
Anesthesia and surgical procedures were conducted as described in Hasturk H, Kantarci A, Ghattas M, Schmidt M, Giordano R, Ashman A, Diekwisch T, Van Dyke T E. The Use of Light/Chemically-Hardened Poly-Methyl-Methacrylate, Poly-Hydroxyl-Ethyl-Methacrylate and Calcium Hydroxide Graft Material in Combination with Polyanhydride around Implants in Minipigs: Part I: Immediate Stability and Function. J Periodontol. 2011 September; 82(9):1339-1352, which is incorporated by reference in its entirety herein. Briefly, minipigs were premedicated with Telazol (4-6 mg/kg IM) and xylazine (2.2 mg/kg IM) and were maintained by 3-4% isoflurane for induction and 0.5-2% isoflurane for maintenance. Each pig was anesthetized for approximately two hours during ligature placement and intraoral photographs. Endotracheal intubation was performed whenever the pig was fully anesthetized. Periodontal disease and bone loss were induced by creating intrabony defects using burs and ligatures in all four quadrants around the same teeth (second and fourth premolars) (FIG. 2A). After ligature placement, animals were fed with soft diet to stimulate plaque accumulation around ligatures for 6 weeks.
Oral examination, including digital photographs, were repeated at 2 and 4 weeks and ligatures were removed at 6 weeks. The sites were left untreated for about 38 days to stabilize the periodontal disease and bone loss obtained and to eliminate the self healing aspect of the bone defects. Accordingly, the defects were chronically created for the baseline treatments (FIG. 2B).
At Day 0 (baseline), the minipigs were anesthetized as described above. […]

[2] = tested on: acute inflammation (PMN infiltration, pro-inflammatory cytokines); details: mouse model of acute inflammation, cited from earlier work
[3] = tested on: periodontitis and inflammation-induced bone destruction; details: rabbit periodontitis; cited from earlier work

Compound	number of applications after which oral osteogenesis effects were observed ([1]; applied to debrided chronic periodontal lesion at periodontal flap surgery)	bone regeneration by conventional radiographic imaging of teeth ([1]; surgery plus 9,12 benzo LXA4 vs surgery alone (FIG. 3))	bone osteogenesis by micro-computed tomography (μCT) imaging of teeth ([1]; surgery plus 9,12 benzo LXA4 vs surgery alone, 0.1-1 μM, light gel, applied at flap surgery, bone covering root notches (FIG. 3))	levels of pro-inflammatory cytokines ([2]; in vivo)	polymorphonuclear leukocyte (PMN) infiltration ([2]; in vivo)	anti-inflammatory properties [2]	bone loss [3]	inflammation [3]	tissue regeneration [3]
9,12 benzo-LXA4 [9,12, benzo LXA4]	observed after only a single application	regenerated bone to essentially pre-disease levels	induction of bone osteogenesis following LXA4 treatment was observed	significantly reducing	significantly reducing	potent anti-inflammatory properties			
CC[C@@H](O)/C=C/C=C\C[C@@H](O)/C=C/C=C/C=C\[C@@H](O)CCCC(=O)O [resolvin E1 (RVE1), resolvin E1]							protects from bone loss	reduces inflammation	stimulates tissue regeneration
